Assay results as given in ChEMBL document CHEMBL3885881, “DrugMatrix”.
“And” between values parts separate entries of the source, which are not always exact repeats. Identical values can stand only once.

Species: Rattus norvegicus
Assay: DrugMatrix - Regimen: Daily Repeat
Assay type: toxicity, organism-based, Sprague-Dawley
Set-up: regimen Daily Repeat, gender Male, age 6-8 weeks
Conditions: in vivo, sc, route mini-PUMP - SUBCUTANEOUS, vehicle 100 % SALINE; for ABSOLUTE MONOCYTE / ABSOLUTE SEGMENTED NEUTROPHIL / BASOPHIL / EOSINOPHIL / ERYTHROCYTE COUNT / HEMATOCRIT / HEMOGLOBIN / LEUKOCYTE COUNT / MEAN CORPUSCULAR HEMOGLOBIN / MEAN CORPUSCULAR HEMOGLOBIN CONCENTRATION / MEAN CORPUSCULAR VOLUME / MONOCYTE / NEUTROPHIL / NUCLEATED RED BLOOD CELLS / PLATELET COUNT / ABSOLUTE BASOPHIL / ABSOLUTE EOSINOPHIL / ABSOLUTE LYMPHOCYTE: tissue Blood; for ALBUMIN / ALKALINE PHOSPHATASE / ASPARTATE AMINOTRANSFERASE / BLOOD UREA NITROGEN / CARBON DIOXIDE / CHOLESTEROL / CREATINE PHOSPHOKINASE / CREATININE / GLUCOSE / LACTATE DEHYDROGENASE / PHOSPHORUS / POTASSIUM / SODIUM / TOTAL BILIRUBIN / URIC ACID: tissue Plasma
[1] = 0 mg/kg, 72 h, dose level Control, time 3 day
[2] = 0 mg/kg, 120 h, dose level Control, time 5 day
[3] = 0 mg/kg, […], dose level Control, time 14 day
[4] = 0.5 mg/kg, 72 h, dose level High, time 3 day
[5] = 0.5 mg/kg, 120 h, dose level High, time 5 day
[6] = 0.5 mg/kg, […], dose level High, time 14 day

Structure (SMILES): CC[C@H](C)[C@H](NC(=O)[C@H](Cc1ccc(O)cc1)NC(=O)[C@@H](NC(=O)[C@H](CCCNC(=N)N)NC(=O)[C@@H](N)CC(=O)O)C(C)C)C(=O)N[C@@H](Cc1cnc[nH]1)C(=O)N1CCC[C@H]1C(=O)N[C@@H](Cc1ccccc1)C(=O)O [ANGIOTENSIN II]
- ABSOLUTE MONOCYTE [1]: 230 cells/µL and 354 CELLS/uL
- ABSOLUTE SEGMENTED NEUTROPHIL [1]: 1658.33 CELLS/uL
- BASOPHIL [1]: 0.3% and 0%
- EOSINOPHIL [1]: 0.43% and 0.5%
- ERYTHROCYTE COUNT [1]: 6.91 x10E6/uL and 6.27 x10E6/uL
- HEMATOCRIT [1]: 45.43% and 36.95%
- HEMOGLOBIN [1]: 14.37 G/DL and 13.4 G/DL
- LEUKOCYTE COUNT [1]: 12.09 x10E3/uL and 16.38 x10E3/uL
- MEAN CORPUSCULAR HEMOGLOBIN [1]: 20.8 pg and 21.42 pg
- MEAN CORPUSCULAR HEMOGLOBIN CONCENTRATION [1]: 31.67 G/DL and 36.27 G/DL
- MEAN CORPUSCULAR VOLUME [1]: 65.83 fL and 59.03 fL
- MONOCYTE [1]: 1.83% and 2%
- NEUTROPHIL [1]: 15.07% and 10.33%
- NUCLEATED RED BLOOD CELLS [1]: 0 /100WBC
- PLATELET COUNT [1]: 1299.67 x10E3/uL and 904.67 x10E3/uL
- ALBUMIN [1]: 3.83 G/DL and 3.82 G/DL
- ALKALINE PHOSPHATASE [1]: 333.67 u/L and 282.33 u/L
- ASPARTATE AMINOTRANSFERASE [1]: 68 u/L and 86.83 u/L
- BLOOD UREA NITROGEN [1]: 19.33 mg/dL and 20.17 mg/dL
- CARBON DIOXIDE [1]: 43 mmol/L and 34.67 mmol/L
- CHOLESTEROL [1]: 84.33 mg/dL and 71.5 mg/dL
- CREATINE PHOSPHOKINASE [1]: 334.33 u/L
- CREATININE [1]: 0.53 mg/dL and 0.2 mg/dL
- GLUCOSE [1]: 156.67 mg/dL and 136.83 mg/dL
- LACTATE DEHYDROGENASE [1]: 159 u/L
- PHOSPHORUS [1]: 9.8 mg/dL and 10.12 mg/dL
- POTASSIUM [1]: 5.93 MEQ/L and 5.92 MEQ/L
- SODIUM [1]: 146.33 MEQ/L and 147.8 MEQ/L
- TOTAL BILIRUBIN [1]: 0.37 mg/dL and 0.2 mg/dL
- URIC ACID [1]: 0.73 mg/dL and 1.4 mg/dL
- ABSOLUTE SEGMENTED NEUTROPHIL [2]: 3216.67 CELLS/uL
- BASOPHIL [2]: 0.2% and 0%
- EOSINOPHIL [2]: 0.33% and 0%
- ERYTHROCYTE COUNT [2]: 6.81 x10E6/uL and 6.11 x10E6/uL
- HEMATOCRIT [2]: 44.33% and 36.22%
- HEMOGLOBIN [2]: 13.77 G/DL and 13.18 G/DL
- LEUKOCYTE COUNT [2]: 11.2 x10E3/uL and 17.8 x10E3/uL
- MEAN CORPUSCULAR HEMOGLOBIN [2]: 20.23 pg and 21.62 pg
- MEAN CORPUSCULAR HEMOGLOBIN CONCENTRATION [2]: 31.03 G/DL and 36.42 G/DL
- MEAN CORPUSCULAR VOLUME [2]: 65.1 fL and 59.37 fL
- MONOCYTE [2]: 2.1% and 1.83%
- NEUTROPHIL [2]: 16.43% and 17.67%
- NUCLEATED RED BLOOD CELLS [2]: 0 /100WBC
- PLATELET COUNT [2]: 1573.33 x10E3/uL and 1311 x10E3/uL
- ALBUMIN [2]: 3.87 G/DL and 3.83 G/DL
- ALKALINE PHOSPHATASE [2]: 303.67 u/L and 260.33 u/L
- ASPARTATE AMINOTRANSFERASE [2]: 72.67 u/L and 76.17 u/L
- BLOOD UREA NITROGEN [2]: 17.33 mg/dL and 14.67 mg/dL
- CARBON DIOXIDE [2]: 41.33 mmol/L and 31.33 mmol/L
- CHOLESTEROL [2]: 74.33 mg/dL and 75 mg/dL
- CREATINE PHOSPHOKINASE [2]: 286.67 u/L
- CREATININE [2]: 0.47 mg/dL and 0.16 mg/dL
- GLUCOSE [2]: 152.33 mg/dL and 152.67 mg/dL
- LACTATE DEHYDROGENASE [2]: 147.33 u/L
- PHOSPHORUS [2]: 10 mg/dL and 10.97 mg/dL
- POTASSIUM [2]: 6.4 MEQ/L and 6 MEQ/L
- SODIUM [2]: 146 MEQ/L and 145.52 MEQ/L
- TOTAL BILIRUBIN [2]: 0.43 mg/dL and 0.17 mg/dL
- URIC ACID [2]: 0.83 mg/dL and 1.27 mg/dL
- ABSOLUTE SEGMENTED NEUTROPHIL [3]: 2414 CELLS/uL
- NUCLEATED RED BLOOD CELLS [3]: 0.17 /100WBC
- CREATINE PHOSPHOKINASE [3]: 262 u/L
- ABSOLUTE BASOPHIL [4]: 56.7 cells/µL
- ABSOLUTE EOSINOPHIL [4]: 70 cells/µL
- ABSOLUTE LYMPHOCYTE [4]: 10900 cells/µL
- ABSOLUTE MONOCYTE [4]: 510 cells/µL
- BASOPHIL [4]: 0.4%
- EOSINOPHIL [4]: 0.5%
- ERYTHROCYTE COUNT [4]: 6.47 x10E6/uL
- HEMATOCRIT [4]: 44.43%
- HEMOGLOBIN [4]: 13.53 G/DL
- LEUKOCYTE COUNT [4]: 14.39 x10E3/uL
- MEAN CORPUSCULAR HEMOGLOBIN [4]: 20.97 pg
- MEAN CORPUSCULAR HEMOGLOBIN CONCENTRATION [4]: 30.53 G/DL
- MEAN CORPUSCULAR VOLUME [4]: 68.7 fL
- MONOCYTE [4]: 3.57%
- NEUTROPHIL [4]: 18.63%
- PLATELET COUNT [4]: 1360 x10E3/uL
- ALBUMIN [4]: 3.77 G/DL
- ALKALINE PHOSPHATASE [4]: 339 u/L
- ASPARTATE AMINOTRANSFERASE [4]: 71.67 u/L
- BLOOD UREA NITROGEN [4]: 19 mg/dL
- CARBON DIOXIDE [4]: 41.33 mmol/L
- CHOLESTEROL [4]: 91.67 mg/dL
- CREATINE PHOSPHOKINASE [4]: 392.67 u/L
- CREATININE [4]: 0.5 mg/dL
- GLUCOSE [4]: 169.67 mg/dL
- PHOSPHORUS [4]: 10.23 mg/dL
- POTASSIUM [4]: 6.3 MEQ/L
- SODIUM [4]: 150.67 MEQ/L
- TOTAL BILIRUBIN [4]: 0.27 mg/dL
- URIC ACID [4]: 0.93 mg/dL
- ABSOLUTE BASOPHIL [5]: 43.3 cells/µL
- ABSOLUTE EOSINOPHIL [5]: 36.7 cells/µL
- ABSOLUTE LYMPHOCYTE [5]: 9260 cells/µL
- ABSOLUTE MONOCYTE [5]: 340 cells/µL
- BASOPHIL [5]: 0.33%
- EOSINOPHIL [5]: 0.3%
- ERYTHROCYTE COUNT [5]: 6.6 x10E6/uL
- HEMATOCRIT [5]: 45.03%
- HEMOGLOBIN [5]: 13.57 G/DL
- LEUKOCYTE COUNT [5]: 12.59 x10E3/uL
- MEAN CORPUSCULAR HEMOGLOBIN [5]: 20.53 pg
- MEAN CORPUSCULAR HEMOGLOBIN CONCENTRATION [5]: 30.1 G/DL
- MEAN CORPUSCULAR VOLUME [5]: 68.23 fL
- MONOCYTE [5]: 2.7%
- NEUTROPHIL [5]: 22.57%
- PLATELET COUNT [5]: 1662.33 x10E3/uL
- ALBUMIN [5]: 3.8 G/DL
- ALKALINE PHOSPHATASE [5]: 329 u/L
- ASPARTATE AMINOTRANSFERASE [5]: 76.33 u/L
- BLOOD UREA NITROGEN [5]: 17.67 mg/dL
- CARBON DIOXIDE [5]: 41 mmol/L
- CHOLESTEROL [5]: 86.33 mg/dL
- CREATINE PHOSPHOKINASE [5]: 239.67 u/L
- CREATININE [5]: 0.5 mg/dL
- GLUCOSE [5]: 171.33 mg/dL
- PHOSPHORUS [5]: 9.77 mg/dL
- POTASSIUM [5]: 5.87 MEQ/L
- SODIUM [5]: 152 MEQ/L
- TOTAL BILIRUBIN [5]: 0.3 mg/dL
- URIC ACID [5]: 1.33 mg/dL
- ABSOLUTE BASOPHIL [6]: 40 cells/µL
- ABSOLUTE EOSINOPHIL [6]: 62 cells/µL
